The values that follow come from patent publication US12180252B2, “Peptide derived from PEP27 peptide and uses thereof” (priority 2021, dated 2024).

What all share (experiment): microbe, parasite or virus in culture
In one experiment the test system is P. aeruginosa 4007. The following applies: Pseudomonas aeruginosa, 4007, 18 h, read-out: Minimal inhibitory concentration. On the procedure:
(§1) In order to evaluate the antimicrobial activity of the peptides prepared by the method of above 1, a minimal inhibitory concentration (MIC) value as the minimum concentration of a peptide, in which cells are not divided, was measured.
(§2) Specifically, the strains shown in Table 3 below were purchased, cultured in a medium having a constitutional composition suitable for each strain to a mid-log phase, and then diluted to a concentration of 2×10^4 cells/100 μl to prepare the product on a micro-titration plate (Nunc, USA). Then, PEP27, PEP27-1, PEP27-2 or PEP27-5 peptide synthesized in the above 1 was added to each well by serial dilution ½ times, followed by incubation at 37° C. for 18 hours.
(§3) Specifically, subject strains were prepared by the method of above 2, and were treated with the antibiotics, that is, meropenem, ceftazidime, ceftriaxone or vancomycin, respectively, followed by determining MICs of the antibiotics.

A further experiment has as its system P. aeruginosa 4891. The settings on record: Pseudomonas aeruginosa, 4891, 18 h, read-out: Minimal inhibitory concentration. How it is done:
as §1, §2, §3

For a further experiment, the system named is P. aeruginosa ATCC15692. The settings on record: Pseudomonas aeruginosa, ATCC15692, 18 h, read-out: Minimal inhibitory concentration. On the procedure: as §1, §2, §3
The test system of the next experiment is P. aeruginosa ATCC27853. The following applies: Pseudomonas aeruginosa, ATCC27853, 18 h, read-out: Minimal inhibitory concentration. How it is done: as §1, §2, §3
In the next experiment the test system is S. aureus ATCC25923. The following applies: Staphylococcus aureus, ATCC25923, 18 h, read-out: Minimal inhibitory concentration. How it is done:
as §1, §2, §3

For a further experiment, the system named is S. aureus ATCC29213. The following applies: Staphylococcus aureus, ATCC29213, 18 h, read-out: Minimal inhibitory concentration. How it is done:
as §1, §2, §3

In the next experiment the test system is S. aureus CCARM3089. The following applies: Staphylococcus aureus, CCARM3089, 18 h, read-out: Minimal inhibitory concentration. On the procedure: as §1, §2, §3
A further experiment concerns S. aureus CCARM3090. The settings on record: Staphylococcus aureus, CCARM3090, 18 h, read-out: Minimal inhibitory concentration. On the procedure:
as §1, §2, §3

A further experiment relates to S. aureus CCARM3518. The following applies: Staphylococcus aureus, CCARM3518, 18 h, read-out: Minimal inhibitory concentration. On the procedure: as §1, §2, §3
Another experiment has as its system S. aureus MW2. The settings on record: Staphylococcus aureus, MW2, 18 h, read-out: Minimal inhibitory concentration. How it is done: as §1, §2, §3
The test system of the next experiment is S. aureus USA300. The following applies: Staphylococcus aureus, USA300, 18 h, read-out: Minimal inhibitory concentration. On the procedure:
as §1, §2, §3

Values after ≈ are worked out from the molar mass of the structure shown.

Turning to `CC(C)(O/N=C(\C(=O)N[C@@H]1C(=O)N2C(C(=O)[O-])=C(C[n+]3ccccc3)CS[C@H]12)c1csc(N)n1)C(=O)O` [Ceftazidime, ceftazidime], the MIC in the experiment on P. aeruginosa 4007 was determined as 16 µM (≈ 8.75 µg/mL); in the experiment with P. aeruginosa 4891, 16 µM (≈ 8.75 µg/mL); in the experiment on P. aeruginosa ATCC15692, 4 µM (≈ 2.19 µg/mL); with P. aeruginosa ATCC27853, 2 µM (≈ 1.09 µg/mL); in the experiment on S. aureus ATCC25923, 16 µM (≈ 8.75 µg/mL); in the experiment with S. aureus ATCC29213, 3 µM (≈ 1.64 µg/mL). Moreover, the MIC in the experiment on S. aureus CCARM3089 worked out at 512 µM (≈ 280 µg/mL); in the experiment with S. aureus CCARM3090 it was 512 µM (≈ 280 µg/mL); in the experiment on S. aureus CCARM3518, 64 µM (≈ 35 µg/mL); with S. aureus MW2, 32 µM (≈ 17.5 µg/mL); with S. aureus USA300 it was 32 µM (≈ 17.5 µg/mL).

Consider `CN[C@H](CC(C)C)C(=O)N[C@H]1C(=O)N[C@@H](CC(N)=O)C(=O)N[C@H]2C(=O)N[C@H]3C(=O)N[C@H](C(=O)N[C@H](C(=O)O)c4cc(O)cc(O)c4-c4cc3ccc4O)[C@H](O)c3ccc(c(Cl)c3)Oc3cc2cc(c3O[C@@H]2O[C@H](CO)[C@@H](O)[C@H](O)[C@H]2O[C@H]2C[C@](C)(N)[C@H](O)[C@H](C)O2)Oc2ccc(cc2Cl)[C@H]1O` [Vancomycin, vancomycin], for which the MIC in the experiment on P. aeruginosa 4007 is 512 µM (≈ 742 µg/mL); in the experiment with P. aeruginosa 4891, 512 µM (≈ 742 µg/mL); with P. aeruginosa ATCC15692 it was 512 µM (≈ 742 µg/mL); with P. aeruginosa ATCC27853, 256 µM (≈ 371 µg/mL); with S. aureus ATCC25923 it was 0.25 µM (≈ 0.362 µg/mL); in the experiment with S. aureus ATCC29213, 0.25 µM (≈ 0.362 µg/mL). Moreover, the MIC worked out at 0.25 µM (≈ 0.362 µg/mL) in the experiment on S. aureus CCARM3089; 0.5 µM (≈ 0.725 µg/mL) with S. aureus CCARM3090; 0.25 µM (≈ 0.362 µg/mL) in the experiment with S. aureus CCARM3518; 0.25 µM (≈ 0.362 µg/mL) in the experiment with S. aureus MW2; 0.25 µM (≈ 0.362 µg/mL) in the experiment with S. aureus USA300.

For the compound `C[C@@H](O)[C@H]1C(=O)N2C(C(=O)O)=C(S[C@@H]3CN[C@H](C(=O)N(C)C)C3)[C@H](C)[C@H]12` [Meropenem, meropenem], the MIC stood at 4 µM (≈ 1.53 µg/mL) in the experiment on P. aeruginosa 4007; 8 µM (≈ 3.07 µg/mL) in the experiment on P. aeruginosa 4891; 2 µM (≈ 0.767 µg/mL) with P. aeruginosa ATCC15692; 2 µM (≈ 0.767 µg/mL) in the experiment on P. aeruginosa ATCC27853; 2 µM (≈ 0.767 µg/mL) in the experiment on S. aureus ATCC25923; 2 µM (≈ 0.767 µg/mL) in the experiment on S. aureus ATCC29213. Further, the MIC amounted to 64 µM (≈ 24.5 µg/mL) with S. aureus CCARM3089; 128 µM (≈ 49.1 µg/mL) with S. aureus CCARM3090; 64 µM (≈ 24.5 µg/mL) in the experiment with S. aureus CCARM3518; 2 µM (≈ 0.767 µg/mL) in the experiment with S. aureus MW2; 2 µM (≈ 0.767 µg/mL) in the experiment with S. aureus USA300.
